# Like-named read-outs stand apart in the source and are kept apart here.
# Assay: Mouse PK studies after oral and IV dosing
# Type: in vivo
# Details: for F: PO 3 mg/kg vs IV 1 mg/kg; for AUC(0-t) / clearance / half-life / Vd / Cmax / Tmax: in vivo; for clearance: read-out: IV Cl (converted); for Vd: read-out: IV VSS
# Experimental: The pharmacokinetics of representative Compounds of the Disclosure were determined after oral and IV dosing at the concentrations indicated in mouse (Table 7). […] The vehicles used in these studies are either (i) 10% PEG400+90% PBS (adjusted to pH to 8.0 by 0.5 N NaOH); or (ii) 100% PEG200.
# [1] = iv, 1 mg/kg, IV, dose 1 mg/kg, read-out: IV AUC(0 − t)
# [2] = iv, 1 mg/kg, IV, dose 1 mg/kg, read-out: IV T1/2 (converted)
# [3] = po, 3 mg/kg, PO, dose 3 mg/kg, read-out: PO AUC(0 − t)
# [4] = po, 3 mg/kg, PO, dose 3 mg/kg, read-out: PO T1/2 (converted)
smiles,measurement,setting,value
C[C@H]1CC2(CCN(c3ccc(C(=O)N4CCN(C5CCN(c6ccc7c(c6)C(=O)N(C6CCC(=O)NC6=O)C7=O)CC5)CC4)cc3)CC2)CN1c1ccc(C#N)c(Cl)c1 (stereo partly drawn) [Cpd. No. 302],F,,27%
same,AUC(0-t),[1],5030 ng·h/mL
same,clearance,"iv, 1 mg/kg, IV, dose 1 mg/kg",3.17 mL/min/kg
same,half-life,[2],7 h
same,Vd,"iv, 1 mg/kg, IV, dose 1 mg/kg",1.45 L/kg
same,Cmax,"po, 3 mg/kg",526 ng/mL
same,Tmax,"po, 3 mg/kg",1.3 h
same,AUC(0-t),[3],4050 ng·h/mL
same,half-life,[4],7.3 h
"C[C@H]1CC2(CCN(c3ccc(C(=O)N4CCN(C5CN(c6cc7c(cc6F)C(=O)N(C6CCC(=O)NC6=O)C7=O)C5)CC4)cc3)CC2)CN1c1ccc(C#N)c(Cl)c1 (stereo partly drawn) [Cpd. No. 344, 2-chloro-4-((3S)-8-(4-(4-(1-(2-(2,6-dioxopiperidin-3-yl)-6-fluoro-1,3-dioxoisoindolin-5-yl)azetidin-3-yl)piperazine-1-carbonyl)phenyl)-3-methyl-2,8-diazaspiro[4.5]decan-2-yl)benzonitrile]",F,,64%
same,AUC(0-t),[1],4930 ng·h/mL
same,clearance,"iv, 1 mg/kg, IV, dose 1 mg/kg",3.17 mL/min/kg
same,half-life,[2],6.9 h
same,Vd,"iv, 1 mg/kg, IV, dose 1 mg/kg",1.58 L/kg
same,Cmax,"po, 3 mg/kg",841 ng/mL
same,Tmax,"po, 3 mg/kg",4 h
same,AUC(0-t),[3],9470 ng·h/mL
same,half-life,[4],6 h
"C[C@H]1CC2(CCN(c3ccc(C(=O)N4CCN(C5CN(c6ccc7c(c6)CN(C6CCC(=O)NC6=O)C7=O)C5)CC4)cc3)CC2)CN1c1ccc(C#N)c(Cl)c1 (stereo partly drawn) [Cpd. No. 346, 2-chloro-4-((3S)-8-(4-(4-(1-(2-(2,6-dioxopiperidin-3-yl)-1-oxoisoindolin-5-yl)azetidin-3-yl)piperazine-1-carbonyl)phenyl)-3-methyl-2,8-diazaspiro[4.5]decan-2-yl)benzonitrile]",F,,32%
same,AUC(0-t),[1],3030 ng·h/mL
same,clearance,"iv, 1 mg/kg, IV, dose 1 mg/kg",5 mL/min/kg
same,half-life,[2],8.8 h
same,Vd,"iv, 1 mg/kg, IV, dose 1 mg/kg",2.7 L/kg
same,Cmax,"po, 3 mg/kg",260 ng/mL
same,Tmax,"po, 3 mg/kg",3.3 h
same,AUC(0-t),[3],2950 ng·h/mL
same,half-life,[4],7.2 h
"C[C@H]1CC2(CCN(c3ccc(C(=O)N4CCN(C5CN(c6ccc7c(c6)C(=O)N(C6CCC(=O)NC6=O)C7)C5)CC4)cc3)CC2)CN1c1ccc(C#N)c(Cl)c1 (stereo partly drawn) [Cpd. No. 348, 2-chloro-4-((3S)-8-(4-(4-(1-(2-(2,6-dioxopiperidin-3-yl)-3-oxoisoindolin-5-yl)azetidin-3-yl)piperazine-1-carbonyl)phenyl)-3-methyl-2,8-diazaspiro[4.5]decan-2-yl)benzonitrile]",F,,12%
same,AUC(0-t),[1],10100 ng·h/mL
same,clearance,"iv, 1 mg/kg, IV, dose 1 mg/kg",1.67 mL/min/kg
same,half-life,[2],7.5 h
same,Vd,"iv, 1 mg/kg, IV, dose 1 mg/kg",0.9 L/kg
same,Cmax,"po, 3 mg/kg",334 ng/mL
same,Tmax,"po, 3 mg/kg",2 h
same,AUC(0-t),[3],3740 ng·h/mL
same,half-life,[4],7.6 h
"C[C@H]1CC2(CCN(c3ccc(C(=O)N4CCC(CN5CCN(c6ccc7c(c6)C(=O)N(C6CCC(=O)NC6=O)C7=O)CC5)CC4)cc3)CC2)CN1c1ccc(C#N)c(Cl)c1 (stereo partly drawn) [Cpd. No. 442, 2-chloro-4-((3S)-8-(4-(4-((4-(2-(2,6-dioxopiperidin-3-yl)-1,3-dioxoisoindolin-5-yl)piperazin-1-yl)methyl)piperidine-1-carbonyl)phenyl)-3-methyl-2,8-diazaspiro[4.5]decan-2-yl)benzonitrile]",F,,42%
same,AUC(0-t),[1],5240 ng·h/mL
same,clearance,"iv, 1 mg/kg, IV, dose 1 mg/kg",2.83 mL/min/kg
same,half-life,[2],9.2 h
same,Vd,"iv, 1 mg/kg, IV, dose 1 mg/kg",1.7 L/kg
same,Cmax,"po, 3 mg/kg",847 ng/mL
same,Tmax,"po, 3 mg/kg",2.67 h
same,AUC(0-t),[3],6570 ng·h/mL
same,half-life,[4],5.37 h
"C[C@H]1CC2(CCN(c3ccc(C(=O)N4CCC(N5CCN(c6ccc7c(c6)C(=O)N(C6CCC(=O)NC6=O)C7=O)CC5)CC4)cc3)CC2)CN1c1ccc(C#N)c(Cl)c1 (stereo partly drawn) [Cpd. No. 443, 2-chloro-4-((3S)-8-(4-(4-(4-(2-(2,6-dioxopiperidin-3-yl)-1,3-dioxoisoindolin-5-yl)piperazin-1-yl)piperidine-1-carbonyl)phenyl)-3-methyl-2,8-diazaspiro[4.5]decan-2-yl)benzonitrile]",F,,67%
same,AUC(0-t),[1],8440 ng·h/mL
same,clearance,"iv, 1 mg/kg, IV, dose 1 mg/kg",2 mL/min/kg
same,half-life,[2],7.1 h
same,Vd,"iv, 1 mg/kg, IV, dose 1 mg/kg",1.02 L/kg
same,Cmax,"po, 3 mg/kg",1870 ng/mL
same,Tmax,"po, 3 mg/kg",2 h
same,AUC(0-t),[3],15500 ng·h/mL
same,half-life,[4],5.38 h

# Reference: US20220380368A1, “SPIROCYCLIC ANDROGEN RECEPTOR PROTEIN DEGRADERS” (THE REGENTS OF THE UNIVERSITY OF MICHIGAN, priority 2019, published 2022)
